The results in this text go back to article PMC9605497, “Potential of Epidermal Growth Factor-like Peptide from the Sea Cucumber Stichopus horrens to Increase the Growth of Human Cells: In Silico Molecular Docking Approach” (Marine Drugs, 2022).

In experiment [1] the test system is human melanoma cells (CRL-1872). The experiment in a line: Cell proliferation assay (cell counting). It counts as cell-based. The settings on record: for Average cell number: average over 0, 24, 48, 72 and 96 h; for number of cells vs serum-free medium: four days, triplicates; for duration of temporary increment of cell numbers: cell numbers dropped drastically after the medium change. Here is the method:
Human melanoma cells (CRL-1872) were purchased from ATCC, Rocksville, MD, USA. Cells were cultured in a complete growth medium, which consisted of Minimum Essential Medium (MEM) (Gibco, Waltham, MA, USA) supplemented with 10% fetal bovine serum (FBS) (Invitrogen, Waltham, MA, USA) and 1% antibiotic–antimycotic (Invitrogen, Waltham, MA, USA), in a humidified incubator at 37 °C, equilibrated with 5% CO2. Cells were subcultured every two days until reaching confluency in T25 flask (TPP, Trasadingen, Switzerland) before being seeded in designated plates for specific experiment objectives.
Cells were seeded at 80,000 cells per well in a 24-well plate containing 400 µL of complete growth medium. After 24 h of culture, the medium was removed, washed once with PBS, replaced with serum-free medium and left to culture for another 16 h. The medium was removed and replaced with corresponding treatment medium, each in triplicates; 10 nM and 50 nM of Sh-EGFl-1, 10 nM and 50 nM of rhEGF were used as a positive control and serum-free medium was used as a negative control. Cells were cultured in a single plate to track their growth every 24 h during the four days of experiment. […] A crossed line was made at the bottom of each well to mark the four cell-counting areas that were recorded daily using a microscope digital camera. Cells were counted manually based on the images visualized using ImageJ version 2.0.

Experiment [2] deals with human EGFR. The experiment in a line: Ligand binding assay with biotinylated peptide (NeutrAvidin-HRP/ABTS, 405 nm). The settings on record: for Relative binding: melanoma cells, 1 h at 37 °C, (OD x nM - OD 0 nM)/OD 0 nM at 405 nm, triplicates; for optimum concentration for binding to EGFR: concentrations tested 10, 50 and 500 nM. Here is the method: An experiment was performed to test the ability of Sh-EGFl-1 peptide interaction with human receptor. Ligand binding assay, adapted from King et al. was performed with modifications using human cells. Both Sh-EGFl-1 and rhEGF were first conjugated with N-hydroxysuccinimidobiotin (NHS-biotin) and were added to human cells. Any binding of peptide to EGFR was detected through the reaction of NeutrAvidin conjugated with horseradish peroxidase enzyme and 2,2′-azino-bis-3-ethylbenzothiazoline-6-sulfonic acid (ABTS) as substrate.
A short peptide sequence derived from the protein translation of Contig 498513, was submitted to order. The 4.9 kDa Sh-EGFl-1 peptide (H-NINECFSSPCENQGICQDEIDGYNCVCQPGFTGTHCESSMLNHVI-OH) was synthesized by Mimotopes Pty. Ltd., Australia through a Fmoc solid-phase peptide chemistry method. A master stock concentration of 1 mg/mL was prepared by diluting lyophilized peptide with PBS buffer pH 7.4. Recombinant human EGF (rhEGF) (H-MNSDSECPLSHDGYCLHDGVCMYIEALDKYACNCVVGYIGERCQYRDLKWWELR-OH) was purchased from Thermo Scientific. For the cell proliferation assay and morphology observation experiments, peptides were added fresh into the serum-free growth medium to concentrations of 10 nM and 50 nM. For the binding affinity assay experiment, biotinylation of Sh-EGFl-1 and rhEGF peptides with NHS–biotin (Sigma Aldrich, Burlington, MA, USA) was performed according to the manufacturer’s instructions. The diluted peptides in PBS pH 7.4 were changed into carbonate buffer 0.1 M carbonate buffer pH 9.5 (0.07 M sodium bicarbonate, 0.03 M sodium carbonate) for an optimal biotinylation environment. A 10 X volume of cold acetone was added to the peptides and vortexed for 15 s. The mixture was incubated for 30 min at −20 °C before being centrifuged at 16,100× g for 24 min at 4 °C. The supernatant was discarded and the pellet was air-dried and fully dissolved in carbonate buffer pH 9.5. A total of 20 mg/mL of NHS–biotin was prepared in 1 mL DMSO. A volume of 0.13 µL and 0.1 µL of NHS–biotin was added to the Sh-EGFl-1 and rhEGF peptides, respectively. Both reaction mixtures were vortexed for a while and incubated in a thermoblock with 400 rpm shaking speed for 4 h at room temperature. Any unattached biotin molecules were sieved out using a PD-10 desalting column containing Sephadex G-25 medium (GE Life Sciences, Chicago, IL, USA). PBS buffer pH 7.4 was used as eluent to collect the conjugated peptides out from the column. The concentration of the biotin-conjugated peptides was determined using a NanoDrop spectrophotometer (Thermo Scientific, Waltham, MA, USA) and BCA assay.
Melanoma cells were seeded at 90% confluency in a 96-well plate and cultured in a humidified incubator at 37 °C, equilibrated with 5% CO2 until the next day. When all cells were attached to the surface, the plate was placed on ice for a while to reduce the protein metabolism rate, so the cells were not easily detached. The medium was removed and cells were washed twice using 200 µL of cold PBS buffer. A volume of 100 µL cold formalin was added to the cells to enhance cell attachment to the surface. The plate was placed on ice for the first 5 min, then continued for another 15 min incubation at room temperature. Cells were washed twice using 200 µL of cold PBS. A total of 100 µL of melanoma growth medium (MEM basal medium and 3% FBS) was added and cells were incubated at 37 °C for 30 min. The medium was discarded and replaced with 100 µL of treatment medium (MEM basal medium supplemented with 0.1% BSA, 200 mM HEPES buffer and Sh-EGFl-1 and rhEGF at concentrations of 10, 50 and 500 nM respectively). Cells were incubated at 37 °C for 1 h. The medium was discarded, and cells were washed twice using 200 µL cold PBS and 0.3 M NaCl. A total of 100 µL horseradish peroxidase (HRP) conjugated with NeutrAvidin solution (Thermo Scientific, Waltham, MA, USA) was added with a concentration of 1:10,000 onto cells and incubated at 37 °C for 1 h. […]

Several values for one entry are separate records, joined by “and”; a condition that tells them apart may be missing. Equal values may be shown once.

Consider “H-MNSDSECPLSHDGYCLHDGVCMYIEALDKYACNCVVGYIGERCQYRDLKWWELR-OH (disulfide) [rhEGF, Recombinant human EGF purchased from Thermo Scientific, reference compound]”, for which the Average cell numbers was determined as 2115 in experiment [1] (0 h, 10 nM); 1331 in experiment [1] (0 h, 50 nM); 712 in experiment [1] (24 h, 10 nM); 1643 in experiment [1] (24 h, 50 nM); 399 in experiment [1] (48 h, 10 nM); 1741 in experiment [1] (48 h, 50 nM). The Average cell numbers stood at 497 in experiment [1] (72 h, 10 nM); 663 in experiment [1] (72 h, 50 nM); 339 in experiment [1] (96 h, 10 nM); 438 in experiment [1] (96 h, 50 nM). The values for the Average cell number in experiment [1] (10 nM) and in experiment [1] (50 nM) were 810 and 1166, respectively. In addition, the “number of cells vs serum-free medium” value in experiment [1] (50 nM) is given as “significantly higher”. The “duration of temporary increment of cell numbers” value in experiment [1] (50 nM) is reported as 48 h. The Relative binding in experiment [2] (10 nM) is 12%; in experiment [2] (50 nM), 4% and 3.62%; in experiment [2] (500 nM) it was 7.57%. The “optimum concentration for binding to EGFR” value in experiment [2] is recorded as 10 nM.
Take “H-NINECFSSPCENQGICQDEIDGYNCVCQPGFTGTHCESSMLNHVI-OH (disulfide) [Sh-EGFl-1, 45 amino acid EGF-like peptide from Stichopus horrens contig 498513, synthesized by Fmoc solid-phase peptide chemistry]”: the Average cell numbers is 1781 in experiment [1] (0 h, 10 nM); 1382 in experiment [1] (0 h, 50 nM); 1413 in experiment [1] (24 h, 10 nM); 1637 in experiment [1] (24 h, 50 nM); 1559 in experiment [1] (48 h, 10 nM); 1753 in experiment [1] (48 h, 50 nM). Moreover, the Average cell numbers was determined as 1674 in experiment [1] (72 h, 10 nM); 1094 in experiment [1] (72 h, 50 nM); 1816 in experiment [1] (96 h, 10 nM); 862 in experiment [1] (96 h, 50 nM). Besides, the “number of cells vs serum-free medium” value in experiment [1] (10 nM) was “not significantly different compared with the serum-free treatment”; in experiment [1] (50 nM) it was “significantly higher”. In experiment [1] (10 nM, until day 4), the “cell number over time” value is recorded as “increased numbers until the end of the experiment on day 4”. Moreover, the “duration of temporary increment of cell numbers” value in experiment [1] (50 nM) is on record as 48 h. For the same substance, the human cell growth entry in experiment [1] (lower concentration, cell proliferation assay) was “significantly improved”. Also, the “cell adherence, survival and proliferation” value in experiment [1] (melanoma cells) is “cells are able to maintain their adherent properties, as well as survive and proliferate, albeit rather slowly”. For the same substance, the Relative binding is 5% in experiment [2] (10 nM); -0.68% in experiment [2] (50 nM); ~10% and 10% in experiment [2] (500 nM). Further, in experiment [2], the “optimum concentration for binding to EGFR” value was 500 nM.
